Measured values: patent US20230405007A1, “COMPOUND FOR USE IN AND METHODS OF TREATMENT OF FIBROTIC DISEASES” (Galapagos NV, priority 2020, published 2023)

Tested on: subjects with idiopathic pulmonary fibrosis (IPF)
Assay: Phase II randomized, double-blind, placebo-controlled IPF clinical study: monitoring of adverse events (SAEs, TEAEs)
Type: in vivo, human
Conditions: for Subjects with Serious TEAE / Subjects with TEAE leading to treatment discontinuation (LD): 100 mg orally once daily, 26 weeks
From the text: The study of the current example was a randomized, double-blind, parallel group, placebo-controlled, multicenter, Phase II study to evaluate the efficacy, safety and tolerability of Compound 1 in subjects with idiopathic pulmonary fibrosis (IPF). The primary objective of this study was to evaluate the efficacy of Compound 1 treatment in subjects with IPF on pulmonary function as evaluated by FVC compared to placebo over 26 weeks.
The study provided for 2 types of interventions: • Drug: Compound 1—100 mg administered orally once daily as 2 capsules of 50 mg with or without food • Drug: Compound 1 placebo—administered orally once daily as 2 capsules with or without food
Study participants were randomized over 2 study arms: • 1. Experimental: Compound 1: Compound 1 100 mg, for 26 weeks • 2. Placebo Comparator: Placebo: Compound 1 placebo for 26 weeks
To be eligible, the subjects met the following criteria: • Males or females of non-child-bearing potential, aged ≥40 years. • A diagnosis of IPF within 5 years prior to the screening visit as per American Thoracic Society (ATS)/European Respiratory Society (ERS)/Japanese Respiratory Society (JRS)/Latin American Thoracic Association (ALAT) guidelines. • Meeting all of the following criteria at screening and during the screening period: • FVC≥50% predicted of normal • Disease progression in the last 9 months prior to the screening period and at screening, defined as at least one prescreening FVC value and screening value with a decline of FVC (% predicted or mL), at the investigator's discretion • Diffusing capacity for the lungs for carbon monoxide (DLCO)≥30% predicted of normal (corrected for hemoglobin) • Ratio of forced expiratory volume in one second (FEV1) to FVC≥0.70 • In a stable condition and suitable for study participation based on the results of a medical history, physical examination, vital signs, 12-lead ECG, and laboratory evaluation. Stable condition is based on the clinical judgment of the investigator, co-morbidities should be treated according to the local applicable guidelines. Concomitant medication for comorbidities should be stabilized from 4 weeks before screening and during the screening period (stable defined as no change of dose or regimen). • Estimated minimum life expectancy of 12 months for non-IPF related disease in the opinion of the investigator. • Male subjects with female partners of child bearing potential are willing to comply with the contraceptive methods described in the respective protocol prior to the first dose of the IMP, during the clinical study, and for at least 12 weeks after the last dose of the IMP. • Able to walk at least 150 meters during the 6MWT at screening; without having a contraindication to perform the 6MWT. • Able to understand the importance of adherence, and willing to comply to study treatment, study procedures and requirements as per study protocol, including the concomitant medication restrictions. […]

[1] = Summary All (N = 68, both arms)
[2] = background therapy Nintedanib (N = 24, both arms)
[3] = background therapy None (N = 25, both arms)
[4] = background therapy Pirfenidone (N = 19, both arms)

## O=c1nc(OC[C@@H]2COCCO2)cc2n1CCc1cc(C#CC3CC3)ccc1-2 [GLPG1205, 9-Cyclopropylethynyl-2-((S)-1-[1,4]dioxan-2-ylmethoxy)-6,7-dihydro-pyrimido[6,1-a]iso quinolin-4-one]
[1]
  Subjects with Serious TEAE: 9 n
  Subjects with TEAE leading to treatment discontinuation (LD): 10 n
[2]
  Subjects with Serious TEAE: 7 n
  Subjects with TEAE leading to treatment discontinuation (LD): 6 n
[3]
  Subjects with Serious TEAE: 2 n
  Subjects with TEAE leading to treatment discontinuation (LD): 2 n
[4]
  Subjects with Serious TEAE: 0 n
  Subjects with TEAE leading to treatment discontinuation (LD): 2 n
Administered in combination with or alongside nintedanib
  serious adverse events (SAEs) and/or treatment emergent adverse events (TEAEs): increased
